Test results taken from paper PMC6433934, “Preclinical Evaluation of Bispecific Adaptor Molecule Controlled Folate Receptor CAR-T Cell Therapy With Special Focus on Pediatric Malignancies” (Frontiers in Oncology, 2019).

System: HOS-FRα tumor-bearing mice
Experiment: Toxicity and CRS rescue with sodium fluorescein
Type: in vivo
Details: sodium fluorescein i.v. ~95 mg/kg, severe CRS, 35 million total CAR-T cells (93:7 CD4/CD8), plasma 6 h later
Protocol: Depending on the CAR-T cell dose and how EC17 is administered, tumor-bearing mice receiving FITC-specific CAR-T cells can experience severe CRS and varying degrees of body weight loss ([27], [33], [34]). Therefore, we developed a CRS grading system (0–5 scale) to empirically assess CRS toxicity from animals' gross morphology and social behavior to allow for better timing of CRS rescue. While grades 0 and 5 indicated normal (no CRS) or death (due to severe CRS), respectively, grades 1, 2, and 3–4 were considered mild, light-to-moderate, and severe CRS. In addition, all EC17 doses were intentionally given toward the end of any given day to allow potential CRS symptoms to develop overnight. On the days immediately following each EC17 dose, animals were scored and rescue agents such as sodium fluorescein, folic acid and leucovorin were used to mitigate CRS toxicity ([33]). In this particular instance, a batch of E2-CAR-T cells with a high EGFRt+ CD4/CD8 ratio (~93:7) was given to HOS-FRα tumor-bearing mice at a mixture of ~2.5 million CD8 and ~33 million CD4 on day 0. When EC17 was dosed, respectively, at 500, 100, and 500 nmol/kg on days 3, 10, and 12, low CRS (grades 1–2) was noted on days 4 and 11 but high CRS (grade 3) was noted on day 13. To mitigate the severe CRS toxicity, sodium fluorescein was intravenously administrated at ~96 mg/kg in the morning of day 13 and mouse plasma samples were collected 6 h later for analysis of CRS-associated cytokines.

## O=C([O-])c1ccccc1-c1c2ccc(=O)cc-2oc2cc([O-])ccc12.[Na+].[Na+] [sodium fluorescein, reference compound]
  CAR-T cell derived human cytokines after CRS rescue: acted very quickly to reduce CAR-T cell derived human cytokines
